Test results from US20070191324A1, “Methods for treatment or prophylaxis of aldosterone-mediated pathogenic effects in a subject using an epoxy-steroidal aldosterone antagonist” (priority 1999, published 2007).

Assay: Pharmacokinetics in moderate hepatic impairment vs matched normal subjects (Example A-13);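 further: impaired subjects were Child-Pugh Class B with ascites, compared against healthy volunteers matched for sex, age, weight and smoking, blood sampled before and after dosing on Days 1 and 7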
Details: for AUC / Cmax / AUC(0-inf) / half-life / Tmax: human, plasma, 400 mg; for AUC(0-inf): Single Dose AUC(0-∞), linear kinetics assessment; for half-life: T1/2, Mean
[1] = Mean, Multiple Dose 400 mg QD, Normal
[2] = Mean, Single Dose 400 mg, Normal
[3] = Mean, Multiple Dose 400 mg QD, Moderate
[4] = Mean, Single Dose 400 mg, Moderate
[5] = least squares mean, Multiple Dose 400 mg QD, Moderate Impairment
[6] = least squares mean, Single Dose 400 mg, Moderate Impairment

COC(=O)[C@@H]1CC2=CC(=O)CC[C@]2(C)[C@@]23O[C@@H]2C[C@@]2(C)[C@@H](CC[C@@]24CCC(=O)O4)[C@H]13 [Eplerenone, Pregn-4-ene-7,21-dicarboxylic acid, 9,11-epoxy-17-hydroxy-3-oxo-, γ-lactone, methyl ester, (7α, 11α, 17β)-]
time to steady-state concentrations (400 mg QD dosing, both subject groups): by the fourth day
mean AUC higher in moderate impairment than matched normal subjects (following single dosing): 41-50%
AUC (Mean, Multiple Dose 400 mg QD, Moderate hepatic impairment): 48800 ng·h/mL
AUC [1]: 33800 ng·h/mL
AUC (Mean, Single Dose 400 mg, Moderate hepatic impairment): 51400 ng·h/mL
AUC [2]: 31000 ng·h/mL
Cmax [3]: 4170 ng/mL
Cmax [1]: 3880 ng/mL
Cmax [4]: 3790 ng/mL
Cmax [2]: 3840 ng/mL
Cmax [5]: 3810 ng/mL
Cmax (least squares mean, Multiple Dose 400 mg QD, Normal): 3670 ng/mL
Cmax [6]: 3410 ng/mL
Cmax (least squares mean, Single Dose 400 mg, Normal): 3810 ng/mL
AUC(0-inf) (Moderate Hepatic Impairment): 49800 ng·h/mL
AUC(0-inf) (Normal): 28700 ng·h/mL
half-life (Multiple Dose 400 mg QD, Moderate): 8.07 h
half-life (Multiple Dose 400 mg QD, Normal): 7.61 h
half-life (Single Dose 400 mg, Moderate): 6.78 h
half-life (Single Dose 400 mg, Normal): 6.31 h
Tmax [3]: 2.81 h
Tmax [4]: 2.56 h
Tmax [2]: 2.03 h
Tmax [5]: 2.9 h
Tmax [6]: 2.7 h
